One data set has as its system CYP3A4/2C19. The note with it: result in words.
The next data set concerns the target CYP3A4 (Homo sapiens, UniProt P08684). As to conditions: result in words.
For data set [1] the following is noted: steady-state CBD, healthy volunteers; result in words; cited from earlier work.
The conditions of data set [2]: result in words; cited from earlier work.

CYP3A4, sequence (P08684 whole entry): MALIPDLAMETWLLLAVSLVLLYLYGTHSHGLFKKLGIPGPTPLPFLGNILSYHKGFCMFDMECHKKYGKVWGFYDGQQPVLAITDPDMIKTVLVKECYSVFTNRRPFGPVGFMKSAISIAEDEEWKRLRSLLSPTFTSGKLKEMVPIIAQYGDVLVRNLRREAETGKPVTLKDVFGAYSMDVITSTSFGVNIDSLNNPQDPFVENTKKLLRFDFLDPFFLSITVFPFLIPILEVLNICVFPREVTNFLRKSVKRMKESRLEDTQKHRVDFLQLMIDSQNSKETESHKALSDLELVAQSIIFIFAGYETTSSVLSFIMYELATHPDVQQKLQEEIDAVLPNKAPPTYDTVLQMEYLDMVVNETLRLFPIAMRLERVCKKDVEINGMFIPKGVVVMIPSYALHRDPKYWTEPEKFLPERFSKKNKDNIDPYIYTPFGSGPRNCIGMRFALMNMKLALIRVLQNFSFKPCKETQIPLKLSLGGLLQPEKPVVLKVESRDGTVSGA

For the compound `C=C(C)[C@@H]1CCC(C)=C[C@H]1c1c(O)cc(CCCCC)cc1O` [CBD, cannabidiol], the “t ½ with concomitant RIF” value with CYP3A4/2C19 is reported as “unaffected”. Moreover, at CYP3A4, the “clearance with concomitant ITC” value is on record as “unaffected”, the “effect of concomitant steady‐state ITC on exposure” value was “did not affect” and the “t ½ with concomitant ITC” value is on record as “unaffected”. Besides, in data set [1], the “effect of concomitant STP on exposure” value is “no effect” and the “effect of concomitant VPA on exposure” value is given as “did not affect”. Also, the “PPB when VPA and CBD are combined in vitro” value in data set [2] is recorded as “not affected”.

Values taken from PMC7693203 (Epilepsia, 2020).
